{
  "source": "the supplement of paper PMC10307832",
  "experiment_in_all_cases": "relative viability (nuclei count vs DMSO), 5 days (fraction); higher = more cells survive",
  "key": {"[1]": {"tested_on": "NCI-H23", "how_it_was_run": "(§1)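 The day after seeding in 1536-well plates, lung cancer cell lines were treated by pin tool with a single drug, or with a fixed anchor-drug dose together with five library-drug doses (not always all listed) in √10 steps. After 5 days, a combined fix-and-stain solution (final 0.05% Triton X-100, 1% formaldehyde, 1 ug/ml Hoechst) was added. Nuclei counted on 4× images gave relative viability as treated counts over vehicle counts, reported as the median of duplicate plates.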"}, "[2]": {"tested_on": "COR-L23", "how_it_was_run": "as §1"}, "[3]": {"tested_on": "NCI-H1944", "how_it_was_run": "as §1"}, "[4]": {"tested_on": "201T", "how_it_was_run": "as §1"}, "[5]": {"tested_on": "LU99A", "how_it_was_run": "as §1"}, "[6]": {"tested_on": "NCI-H838", "how_it_was_run": "as §1"}, "[7]": {"tested_on": "NCI-H1793", "how_it_was_run": "as §1"}, "[8]": {"tested_on": "NCI-H2347", "how_it_was_run": "as §1"}, "[9]": {"tested_on": "A-427", "how_it_was_run": "as §1"}, "[10]": {"tested_on": "H3255", "how_it_was_run": "as §1"}, "[11]": {"tested_on": "PC-3 [JPC-3]", "how_it_was_run": "as §1"}, "[12]": {"tested_on": "SW 1573", "how_it_was_run": "as §1"}, "[13]": {"tested_on": "NCI-H460", "how_it_was_run": "as §1"}, "[14]": {"tested_on": "LCLC-103H", "how_it_was_run": "as §1"}, "[15]": {"tested_on": "LCLC-97TM1", "how_it_was_run": "as §1"}, "[16]": {"tested_on": "LK-2", "how_it_was_run": "as §1"}, "[17]": {"tested_on": "NCI-H727", "how_it_was_run": "as §1"}, "[18]": {"tested_on": "HCC-44", "how_it_was_run": "as §1"}, "[19]": {"tested_on": "NCI-H650", "how_it_was_run": "as §1"}, "[20]": {"tested_on": "PC-14", "how_it_was_run": "as §1"}, "[21]": {"tested_on": "NCI-H1563", "how_it_was_run": "as §1"}},
  "data": [
    {"smiles": "Oc1nc(-c2ccc(C(F)(F)F)cc2)nc2c1CSCC2", "note": "[XAV939] + C[C@]1(O)C[C@@H](c2nc(-c3ccc4ccc(-c5ccccc5)nc4c3)c3c(N)nccn32)C1 [Linsitinib] (partner 1 µM)", "values": [
      {"measurement": "relative viability", "setting": "[1]; first compound 0.08 µM", "value": 0.612},
      {"measurement": "relative viability", "setting": "[1]; first compound 0.253 µM", "value": 0.559},
      {"measurement": "relative viability", "setting": "[1]; first compound 0.8 µM", "value": 0.647},
      {"measurement": "relative viability", "setting": "[1]; first compound 2.53 µM", "value": 0.433},
      {"measurement": "relative viability", "setting": "[2]; first compound 0.08 µM", "value": 0.962},
      {"measurement": "relative viability", "setting": "[2]; first compound 0.253 µM", "value": 0.785},
      {"measurement": "relative viability", "setting": "[2]; first compound 0.8 µM", "value": 0.969},
      {"measurement": "relative viability", "setting": "[2]; first compound 2.53 µM", "value": 0.809},
      {"measurement": "relative viability", "setting": "[3]; first compound 0.08 µM", "value": 1.22},
      {"measurement": "relative viability", "setting": "[3]; first compound 0.253 µM", "value": 1.12},
      {"measurement": "relative viability", "setting": "[3]; first compound 0.8 µM", "value": 1.24},
      {"measurement": "relative viability", "setting": "[3]; first compound 2.53 µM", "value": 1.26},
      {"measurement": "relative viability", "setting": "[4]; first compound 0.08 µM", "value": 0.937},
      {"measurement": "relative viability", "setting": "[4]; first compound 0.253 µM", "value": 0.8},
      {"measurement": "relative viability", "setting": "[4]; first compound 0.8 µM", "value": 0.857},
      {"measurement": "relative viability", "setting": "[4]; first compound 2.53 µM", "value": 0.873},
      {"measurement": "relative viability", "setting": "[5]; first compound 0.08 µM", "value": 0.556},
      {"measurement": "relative viability", "setting": "[5]; first compound 0.253 µM", "value": 0.446},
      {"measurement": "relative viability", "setting": "[5]; first compound 0.8 µM", "value": 0.505},
      {"measurement": "relative viability", "setting": "[5]; first compound 2.53 µM", "value": 0.44},
      {"measurement": "relative viability", "setting": "[6]; first compound 0.08 µM", "value": 1.02},
      {"measurement": "relative viability", "setting": "[6]; first compound 0.253 µM", "value": 0.901},
      {"measurement": "relative viability", "setting": "[6]; first compound 0.8 µM", "value": 0.839},
      {"measurement": "relative viability", "setting": "[6]; first compound 2.53 µM", "value": 0.719},
      {"measurement": "relative viability", "setting": "[7]; first compound 0.08 µM", "value": 0.964},
      {"measurement": "relative viability", "setting": "[7]; first compound 0.253 µM", "value": 0.709},
      {"measurement": "relative viability", "setting": "[7]; first compound 0.8 µM", "value": 0.774},
      {"measurement": "relative viability", "setting": "[7]; first compound 2.53 µM", "value": 0.719},
      {"measurement": "relative viability", "setting": "[8]; first compound 0.08 µM", "value": 1.08},
      {"measurement": "relative viability", "setting": "[8]; first compound 0.253 µM", "value": 0.997},
      {"measurement": "relative viability", "setting": "[8]; first compound 0.8 µM", "value": 0.931},
      {"measurement": "relative viability", "setting": "[8]; first compound 2.53 µM", "value": 1},
      {"measurement": "relative viability", "setting": "[9]; first compound 0.08 µM", "value": 1.02},
      {"measurement": "relative viability", "setting": "[9]; first compound 0.253 µM", "value": 1.12},
      {"measurement": "relative viability", "setting": "[9]; first compound 0.8 µM", "value": 1.08},
      {"measurement": "relative viability", "setting": "[9]; first compound 2.53 µM", "value": 1.08},
      {"measurement": "relative viability", "setting": "[10]; first compound 0.08 µM", "value": 0.981},
      {"measurement": "relative viability", "setting": "[10]; first compound 0.253 µM", "value": 0.843},
      {"measurement": "relative viability", "setting": "[10]; first compound 0.8 µM", "value": 1.05},
      {"measurement": "relative viability", "setting": "[10]; first compound 2.53 µM", "value": 0.784},
      {"measurement": "relative viability", "setting": "[11]; first compound 0.08 µM", "value": 0.916},
      {"measurement": "relative viability", "setting": "[11]; first compound 0.253 µM", "value": 0.863},
      {"measurement": "relative viability", "setting": "[11]; first compound 0.8 µM", "value": 1},
      {"measurement": "relative viability", "setting": "[11]; first compound 2.53 µM", "value": 0.874},
      {"measurement": "relative viability", "setting": "[12]; first compound 0.08 µM", "value": 0.78},
      {"measurement": "relative viability", "setting": "[12]; first compound 0.253 µM", "value": 0.675},
      {"measurement": "relative viability", "setting": "[12]; first compound 0.8 µM", "value": 0.739},
      {"measurement": "relative viability", "setting": "[12]; first compound 2.53 µM", "value": 0.635},
      {"measurement": "relative viability", "setting": "[13]; first compound 0.08 µM", "value": 0.988},
      {"measurement": "relative viability", "setting": "[13]; first compound 0.253 µM", "value": 0.651},
      {"measurement": "relative viability", "setting": "[13]; first compound 0.8 µM", "value": 0.959},
      {"measurement": "relative viability", "setting": "[13]; first compound 2.53 µM", "value": 0.778},
      {"measurement": "relative viability", "setting": "[14]; first compound 0.08 µM", "value": 1.05},
      {"measurement": "relative viability", "setting": "[14]; first compound 0.253 µM", "value": 0.943},
      {"measurement": "relative viability", "setting": "[14]; first compound 0.8 µM", "value": 1.19},
      {"measurement": "relative viability", "setting": "[14]; first compound 2.53 µM", "value": 1.02},
      {"measurement": "relative viability", "setting": "[15]; first compound 0.08 µM", "value": 0.192},
      {"measurement": "relative viability", "setting": "[15]; first compound 0.253 µM", "value": 0.19},
      {"measurement": "relative viability", "setting": "[15]; first compound 0.8 µM", "value": 0.206},
      {"measurement": "relative viability", "setting": "[15]; first compound 2.53 µM", "value": 0.167},
      {"measurement": "relative viability", "setting": "[16]; first compound 0.08 µM", "value": 0.514},
      {"measurement": "relative viability", "setting": "[16]; first compound 0.253 µM", "value": 0.499},
      {"measurement": "relative viability", "setting": "[16]; first compound 0.8 µM", "value": 0.42},
      {"measurement": "relative viability", "setting": "[16]; first compound 2.53 µM", "value": 0.457},
      {"measurement": "relative viability", "setting": "[17]; first compound 0.08 µM", "value": 0.315},
      {"measurement": "relative viability", "setting": "[17]; first compound 0.253 µM", "value": 0.246},
      {"measurement": "relative viability", "setting": "[17]; first compound 0.8 µM", "value": 0.233},
      {"measurement": "relative viability", "setting": "[17]; first compound 2.53 µM", "value": 0.372},
      {"measurement": "relative viability", "setting": "[18]; first compound 0.08 µM", "value": 0.789},
      {"measurement": "relative viability", "setting": "[18]; first compound 0.253 µM", "value": 0.673},
      {"measurement": "relative viability", "setting": "[18]; first compound 0.8 µM", "value": 0.659},
      {"measurement": "relative viability", "setting": "[18]; first compound 2.53 µM", "value": 0.651},
      {"measurement": "relative viability", "setting": "[19]; first compound 0.08 µM", "value": 1.13},
      {"measurement": "relative viability", "setting": "[19]; first compound 0.253 µM", "value": 1.07},
      {"measurement": "relative viability", "setting": "[19]; first compound 0.8 µM", "value": 0.911},
      {"measurement": "relative viability", "setting": "[19]; first compound 2.53 µM", "value": 0.857},
      {"measurement": "relative viability", "setting": "[20]; first compound 0.08 µM", "value": 0.954},
      {"measurement": "relative viability", "setting": "[20]; first compound 0.253 µM", "value": 0.831},
      {"measurement": "relative viability", "setting": "[20]; first compound 0.8 µM", "value": 1.04},
      {"measurement": "relative viability", "setting": "[20]; first compound 2.53 µM", "value": 0.844},
      {"measurement": "relative viability", "setting": "[21]; first compound 0.08 µM", "value": 1.2},
      {"measurement": "relative viability", "setting": "[21]; first compound 0.253 µM", "value": 1.01},
      {"measurement": "relative viability", "setting": "[21]; first compound 0.8 µM", "value": 1.07},
      {"measurement": "relative viability", "setting": "[21]; first compound 2.53 µM", "value": 0.871}
    ]}
  ]
}
